One block for each molecule: values may come before it.
How the values were obtained:
[1] = system: HT-29 cell line transiently transfected with GFP-N-COMMD1; test: chemosensitivity to 5-FU of transfected HT-29 cells, MTT; assay type: cell-based, human; settings: cells expressing GFP-NCOMMD1 compared to GFP or GFP-COMMD1, 48 hours
Protocol: (A) The HT-29 cell line transiently transfected with constructs described above were seeded in 96-well plates (Costar) at density of 1×10^4 cells/mL in RPMI 1640 (Gibco) supplemented with fetal calf serum (Gibco) After 24 hours, the cytostatic 5-FU was added to the culture medium in a dose range between 0.025 μM and 2500 μM, in 1:10 serial dilutions. […] Finally, the plate reading at an absorbance of 492 nm was carried out. Each point was performed in duplicate, and experiments were carried out at least twice independently. The IC50 values were obtained from the respective curves of cell proliferation.

HT-29 tumor cells = test: combination L552 peptide and cytostatic, MTT, CalcuSyn, HT-29; assay type: cell-based, human
Protocol: (§1) For this assay, HT-29 and H-125 tumor cells were seeded in 96-well plates (Costar) at a density of 1×10^4 cells mL in RPMI 1640 (Gibco) supplemented with fetal calf serum (Gibco). After 24 hours, the peptide was added to the culture medium in a dose range between 9 μM and 300 μM and the cytostatic drug was added in a range dose of 1:10 serial dilution over and below the reported IC50 for each cell line. […] The effect of concomitant treatment cytostatic-peptide was analyzed by the CalcuSyn computer software to study drug combinations (Ting-Chao Chou, 2006, Pharmacological Reviews, 58: 621-681). […] The combination 5-FU+L552 peptide allows a 20 times reduction (RI) of cytostatic in the HT-29 cell line. For the combination cisplatin+L552 peptide, the cytostatic reduction is 5 times in the H-125 cell line. […] This can reduce the adverse effects associated with chemotherapy.

H-125 tumor cells = test: combination L552 peptide and cytostatic, MTT, CalcuSyn, H-125; assay type: cell-based, human
Protocol: as §1

COMMD1 protein [2] = target: T1, COMMD1 protein (Homo sapiens, UniProt Q8N668); test: pulldown with biotinylated L2 peptide, SW948 total protein extract, Western blot; assay type: binding; set-up: Total extract protein from SW948 (cell line from human colon carcinoma); endogenous in cells; host or cells: SW948; settings: compared to total protein extract
Protocol: (A) The synthetic L2 peptide (SEQ ID No. 1), synthesized using a solid phase procedure was biotinylated and used as “bait” attached to a streptavidin sepharose resin. Total extract protein from SW948 (cell line from human colon carcinoma) was used as a “prey”. These experiments are known as “pulldown”. The total extract protein was obtained from […] cells using extraction buffer (Triton X-100 0.5% 25 mM HEPES, pH 7.5, 100 mM NaCl, 1 mM EDTA, 10% glycerol, 1 mM dithiothreitol (DTT), and a protease inhibitor). The biotinylated peptide (300 μg) was incubated with 50 μL of streptavidin sepharose resin (GE Healthcare), for 1 hour, and washed with phosphate buffered saline (PBS 1×) plus 1 mM DTT were done. Then, 500 μL of total proteins were incubated with 50 μL resin containing the biotinylated peptide, at room temperature for 5 hours. Subsequently, the resin is washed extensively with PBS 1× and 1 mM DTT. Proteins remaining attached to the resin are those that interact with the peptide, and are suspended in 25 μL of electrophoresis buffer (62.5 mM Tris HCl, pH 6.9, 0.1 M DTT, 20% sodium dodecyl-sulphate (SDS), 10% glycerol and 0.01% bromophenol blue). To detect the protein of interest a polyacrylamide gel electrophoresis (7.5%) was performed, followed by immunodetection by Western blot. To detect the COMMD1 protein, a monoclonal antibody against COMMD1 protein (Sigma, clone 2A12) was used. […]
Target sequence in this assay (Q8N668 whole entry): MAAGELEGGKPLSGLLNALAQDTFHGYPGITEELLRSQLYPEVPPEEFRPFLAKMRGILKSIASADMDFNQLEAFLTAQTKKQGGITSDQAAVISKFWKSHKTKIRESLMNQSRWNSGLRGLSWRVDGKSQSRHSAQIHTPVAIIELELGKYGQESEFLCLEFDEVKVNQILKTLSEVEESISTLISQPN

[3] = system: COMMD1 nuclear localization in SW948 cells; test: COMMD1 sub-cellular (nuclear) localization in SW948 cells, Western blot; assay type: cell-based, human; settings: peptide 50 μM, 5 hours
Protocol: (B) SW948 cells (3×10^6 cells) were incubated for 5 hours at 37° C. and 5% CO2 with the L2 peptide (50 μM). Subsequently, cytosolic and nuclear proteins were obtained as reported (Vancurova et al., 2001, Journal of Biological Chemistry, 276: 19746-19752). The COMMD1 detection was performed by Western blot using an anti-COMMD1 antibody. […] Beta Actin was used as a control for the cytoplasmic fraction and the human ribonucleoprotein (hnRNP) as a control of the nuclear fraction.
In this experiment the objective was to identify a peptide with a higher capacity to accumulate COMMD1 in the nucleus of the cells. SW948 cells (3×10^6 cells) were incubated for 5 hours at 37° C. and 5% CO2 with L2, L551, L552, L553 and L554 peptides (50 μM). Subsequently, isolation of cytosolic and nuclear proteins was performed as described in Example 2. COMMD1 detection was performed by Western blot using an anti-COMMD1 antibody. […] Also, the interaction is related to the facilitation of nuclear accumulation of COMMD1.

COMMD1 protein [4] = target: T1, COMMD1 protein; test: two-hybrid yeast system, L2 peptide-protein interaction; assay type: binding; set-up: expressed in transfected cells; host or cells: Saccharomyces cerevisiae Y187 (mated with AH109 carrying pGBKL2-1); settings: COMMD1 deletion clones
Protocol: To identify anti-tumor L2 peptide-protein interactions the two-hybrid yeast system was used. For cloning the sequences corresponding to the peptide the oligonucleotides were designed as follows:
corresponding to the L2 peptide sequence: […] For cloning these sequences in the pGBKT7 NcoI-BamHI vector, sequences complementary to these sites were added at the ends of the oligonucleotides. The pGBKL2-1 recombinant plasmid, which carries the L2 peptide sequence was verified by restriction analysis and sequencing. The plasmid was transformed into the AH109 yeast strain by the lithium acetate method and grown in SD-Trp medium. It was verified that it could not be self-activated when grown on SD-Trp-His plates. For the screening of the interactions, a human liver cDNA library transformed into the Y187 strain was used. For the diploid formation and the selection of interactions, 5×10^8 AH109 cells containing the pGBKL2-1 plasmid were grown with 5×10^8 Y187 cells containing the human liver DNA library, for 4 hours, on solid medium YPDA at 30° C. Ten ml of sterile water were added on the surface of the YPDA plates, and the cells were suspended carefully with spatula and transferred to 15 plates of SD-Trp-Leu-His-Ade minimal media and grown at 30° C. for 7 days. The 74 resulting colonies were transferred to liquid SD-Trp-Leu in 96 deep well plates. […]
Target sequence in this assay (Q8N668 6-190): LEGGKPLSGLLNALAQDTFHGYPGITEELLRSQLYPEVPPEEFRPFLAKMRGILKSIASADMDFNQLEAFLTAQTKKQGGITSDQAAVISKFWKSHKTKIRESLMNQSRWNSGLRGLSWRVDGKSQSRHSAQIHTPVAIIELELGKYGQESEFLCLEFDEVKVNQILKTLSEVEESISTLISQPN

IC50 of 5-FU [1]: reduction of the IC50
Molecule: O=c1[nH]cc(F)c(=O)[nH]1 [Peptide 5-FU, 5-fluorouracil]
Drug 5-FU (HT-29 tumor cells; HT-29, at Af 89%): 5000 µM
RI (5-FU) (HT-29 tumor cells; HT-29, reduction index of the drug in combination with L552): 20

Molecule: N.N.[Cl][Pt][Cl] [cisplatin]
Drug cisplatin (H-125 tumor cells; H-125, at Af 94%): 273 µM
RI (cisplatin) (H-125 tumor cells; H-125, reduction index of the drug in combination with L552): 5

COMMD1 pulled down by the peptide (COMMD1 protein [2]): concentrates the COMMD1 protein
Molecule: HARIKPTFRRLKWKYKGKFW [Peptide L2, Peptide previously described in application WO 07/095 867]
COMMD1 nuclear localization / accumulation [3]: COMMD1 nuclear localization
interaction with COMMD1 (region responsible) (COMMD1 protein [4]): specifically binds the region between amino acids 110-190
